The test system of assay [1] is M. tuberculosis standard strain Mtb H37Rv. In words: MIC determination against mycobacteria (resazurin microtiter assay). In kind it is cell-based, Mycobacterium tuberculosis.
The target of a further assay is T1, Human mito LeuRS (Homo sapiens, UniProt Q15031).
T1 sequence (Q15031 1-903): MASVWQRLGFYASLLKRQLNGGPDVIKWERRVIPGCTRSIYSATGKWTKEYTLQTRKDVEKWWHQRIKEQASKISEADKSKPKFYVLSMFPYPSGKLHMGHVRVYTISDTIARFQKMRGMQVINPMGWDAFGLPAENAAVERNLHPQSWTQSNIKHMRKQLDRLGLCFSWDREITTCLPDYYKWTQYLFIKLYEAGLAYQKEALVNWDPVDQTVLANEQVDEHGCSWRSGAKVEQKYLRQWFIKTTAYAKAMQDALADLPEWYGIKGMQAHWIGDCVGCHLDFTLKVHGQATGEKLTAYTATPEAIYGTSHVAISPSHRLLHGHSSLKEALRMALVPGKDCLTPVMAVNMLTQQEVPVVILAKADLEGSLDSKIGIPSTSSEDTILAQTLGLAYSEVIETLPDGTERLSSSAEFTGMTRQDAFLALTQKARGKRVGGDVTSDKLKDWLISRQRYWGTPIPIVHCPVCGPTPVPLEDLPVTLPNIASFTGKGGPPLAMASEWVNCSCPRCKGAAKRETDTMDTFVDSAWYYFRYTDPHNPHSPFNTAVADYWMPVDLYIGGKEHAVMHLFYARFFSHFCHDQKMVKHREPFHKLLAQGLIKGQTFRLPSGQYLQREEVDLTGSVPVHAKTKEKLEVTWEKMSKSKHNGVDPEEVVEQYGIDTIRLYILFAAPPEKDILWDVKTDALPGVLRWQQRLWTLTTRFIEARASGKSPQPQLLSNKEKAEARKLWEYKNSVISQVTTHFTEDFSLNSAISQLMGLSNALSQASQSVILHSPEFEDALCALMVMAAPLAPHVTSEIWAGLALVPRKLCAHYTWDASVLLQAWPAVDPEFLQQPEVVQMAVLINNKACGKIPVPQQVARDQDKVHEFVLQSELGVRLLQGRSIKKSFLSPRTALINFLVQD
In words: LeuRS aminoacylation assay, IC50 determination. In kind it is biochemical.

The test system of a further assay is A. baumannii ATCC 17978. As to the kind of experiment: General antimicrobial activity assay (CLSI broth microdilution). In kind it is cell-based. To be noted: Acinetobacter baumannii, ATCC17978, read-out: MIC: A. baumannii ATCC 17978. The method, then: (§1) Whole-cell antimicrobial activity was determined by broth microdilution using the Clinical and Laboratory Standards Institute (CLSI) recommended procedure, Document M7-A7, “Methods for Dilution Susceptibility Tests for Bacteria that Grow Aerobically”.

The test system of another assay is E. coli K12. Described as above. It counts as cell-based. To be noted: Escherichia coli, K12, read-out: MIC: E. coli K12. The method, then: as §1
The next assay relates to E. coli K12 tolC::Tn10. The assay is described as above. It counts as cell-based. The following applies: Escherichia coli, read-out: MIC: E. coli K12 tolC::Tn10. As to the method: as §1
The test system of a further assay is P. aeruginosa PA01. The assay is described as above. It counts as cell-based. The following applies: Pseudomonas aeruginosa, PA01, read-out: MIC: P. aeruginosa PA01. The method, then:
as §1

The next assay relates to HepG2 cells. As to the kind of experiment: HepG2 cytotoxicity assay (resazurin). In kind it is cell-based. To be noted: Homo sapiens, HepG2, 48 h, read-out: HepG2 cell 48 h Tox50 (A).
Assay [2] deals with M. tuberculosis clinical isolates. In words: MIC against clinical strains (BACTEC MGIT 960 System). In kind it is cell-based. To be noted: Mycobacterium tuberculosis, nearly all of the clinical isolate strains of Tables 2A-2D.
For another assay, the target named is Human cyto LeuRS (Homo sapiens, UniProt Q9P2J5). In words: LeuRS aminoacylation assay, IC50 determination. In kind it is biochemical.
For a further assay, the target named is Mtb LeuRS (Mycobacterium tuberculosis, UniProt P9WFV1). In words: LeuRS aminoacylation assay, IC50 determination. It counts as biochemical, M. tuberculosis. As to the method: For biochemical analyses an N-terminal six histidine-tagged LeuRS was over-expressed in Escherichia coli which were E. coli codon-optimised (GenScript, Piscataway N.J., USA), from human mitochondria and cytoplasm, and M. tuberculosis. N-terminal six histidine-tagged LeuRS proteins were over-expressed and purified according to Novagen (Madison, Wis., USA) using an E. coli BL21(DE3) T7 RNA polymerase over-expression strain.
Experiments were performed in 96-well microtiter plates, using 80 μL reaction mixtures containing 50 mM HEPES-KOH (pH 8.0), 30 mM MgCl2 30 mM KCl, 13 μM L-[^14C]leucine (306 mCi/mmol, Perkin-Elmer), 15 uM total E. coli tRNA (Roche, Switzerland), 0.02% (w/v) BSA, 1 mM DTT, 0.2 μM LeuRS and 4 mM ATP at 30° C. Reactions were started by the addition of 4 mM ATP. After 7 minutes, reactions were quenched and tRNA was precipitated by the addition of 50 μL of 10% (w/v) TCA and transferred to 96-well nitrocellulose membrane filter plates (Millipore Multiscreen HTS, MSHAN4B50). Each well was then washed three times with 100 μL of 5% TCA. Filter plates were then dried under a heat lamp and the precipitated L-[^14C]leucine tRNALeu were quantified by liquid scintillation counting using a Wallac MicroBeta Trilux model 1450 liquid scintillation counter (PerkinElmer, Waltham, Mass., USA). The only difference was with the human cytoplasmic LeuRS when we used tRNA isolated from Brewer's Yeast (Roche Diagnostics GmbH).
Reactions were initiated by the addition of 4 mM ATP. Reactions were stopped after 7 minutes then precipitated and counted to quantify radioactivity. IC50 values were determined using the Graphpad Prism software package (Graphpad Software Inc. (La Jolla, Calif., USA).

Read-outs that look alike come from different tables or passages of the source.

This is an account of results in patent US20180037595A1, “BENZOXABOROLE COMPOUNDS AND USES THEREOF” (GLAXOSMITHKLINE INTELLECTUAL PROPERTY (NO.2) LIMITED, priority 2015, published 2018).

Chain of Mtb LeuRS (P9WFV1 whole entry): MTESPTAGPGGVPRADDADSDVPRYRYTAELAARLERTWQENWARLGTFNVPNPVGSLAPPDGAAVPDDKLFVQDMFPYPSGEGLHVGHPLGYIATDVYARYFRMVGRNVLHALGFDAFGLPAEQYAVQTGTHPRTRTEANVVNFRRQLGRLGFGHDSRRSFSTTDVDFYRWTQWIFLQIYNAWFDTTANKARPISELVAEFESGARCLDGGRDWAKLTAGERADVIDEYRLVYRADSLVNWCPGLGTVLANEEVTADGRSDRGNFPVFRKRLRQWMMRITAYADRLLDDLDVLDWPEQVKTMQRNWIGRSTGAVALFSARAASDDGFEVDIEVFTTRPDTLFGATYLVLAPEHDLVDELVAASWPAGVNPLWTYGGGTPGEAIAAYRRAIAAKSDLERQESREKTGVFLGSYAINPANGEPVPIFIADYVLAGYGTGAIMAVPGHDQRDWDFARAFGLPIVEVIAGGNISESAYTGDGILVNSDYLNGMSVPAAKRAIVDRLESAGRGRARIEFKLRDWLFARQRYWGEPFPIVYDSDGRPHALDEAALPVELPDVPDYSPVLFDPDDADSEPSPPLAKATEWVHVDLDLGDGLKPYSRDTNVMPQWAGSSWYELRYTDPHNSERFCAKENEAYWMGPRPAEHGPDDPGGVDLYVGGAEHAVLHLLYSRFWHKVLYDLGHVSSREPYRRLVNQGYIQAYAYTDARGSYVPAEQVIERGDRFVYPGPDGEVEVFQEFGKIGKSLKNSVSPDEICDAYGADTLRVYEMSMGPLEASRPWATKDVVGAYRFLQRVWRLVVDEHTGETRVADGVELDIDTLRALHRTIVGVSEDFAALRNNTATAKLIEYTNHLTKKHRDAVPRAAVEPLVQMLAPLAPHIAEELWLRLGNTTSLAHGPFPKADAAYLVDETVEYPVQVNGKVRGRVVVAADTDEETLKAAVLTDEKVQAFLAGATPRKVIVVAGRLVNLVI
Chain of Human cyto LeuRS (Q9P2J5 whole entry): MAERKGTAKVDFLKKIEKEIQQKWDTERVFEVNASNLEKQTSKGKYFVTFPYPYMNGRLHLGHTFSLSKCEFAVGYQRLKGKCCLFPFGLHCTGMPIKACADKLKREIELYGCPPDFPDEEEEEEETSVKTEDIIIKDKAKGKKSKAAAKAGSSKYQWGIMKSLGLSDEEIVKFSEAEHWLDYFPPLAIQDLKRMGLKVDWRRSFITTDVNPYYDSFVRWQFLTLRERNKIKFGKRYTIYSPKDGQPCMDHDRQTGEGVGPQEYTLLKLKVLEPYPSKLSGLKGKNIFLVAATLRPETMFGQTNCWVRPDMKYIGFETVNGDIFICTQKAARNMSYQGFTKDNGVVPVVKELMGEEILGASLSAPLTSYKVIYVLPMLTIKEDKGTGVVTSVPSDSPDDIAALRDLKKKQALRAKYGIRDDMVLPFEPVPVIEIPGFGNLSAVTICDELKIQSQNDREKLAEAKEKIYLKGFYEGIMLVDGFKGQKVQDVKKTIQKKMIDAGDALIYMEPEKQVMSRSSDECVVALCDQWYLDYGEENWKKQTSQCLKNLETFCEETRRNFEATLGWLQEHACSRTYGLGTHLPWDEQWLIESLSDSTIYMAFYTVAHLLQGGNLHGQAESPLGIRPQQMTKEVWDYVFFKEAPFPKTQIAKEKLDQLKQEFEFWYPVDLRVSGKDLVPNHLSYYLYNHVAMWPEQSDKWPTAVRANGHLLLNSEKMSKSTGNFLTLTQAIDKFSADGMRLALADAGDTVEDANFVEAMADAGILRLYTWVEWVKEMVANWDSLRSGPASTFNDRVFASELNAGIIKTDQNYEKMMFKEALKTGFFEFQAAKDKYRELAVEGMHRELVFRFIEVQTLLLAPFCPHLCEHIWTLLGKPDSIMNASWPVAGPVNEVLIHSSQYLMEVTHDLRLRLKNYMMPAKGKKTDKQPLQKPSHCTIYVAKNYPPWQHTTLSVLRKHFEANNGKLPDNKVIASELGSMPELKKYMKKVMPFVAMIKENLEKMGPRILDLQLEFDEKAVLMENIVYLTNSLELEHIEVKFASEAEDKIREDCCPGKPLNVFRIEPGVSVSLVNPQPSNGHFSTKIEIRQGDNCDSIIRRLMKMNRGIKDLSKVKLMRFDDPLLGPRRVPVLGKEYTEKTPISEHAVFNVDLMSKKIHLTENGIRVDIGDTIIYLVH

For `Cl.NC[C@H]1OB2OCCOc3ccc(Br)c1c32` [Example 2, (S)-(3-bromo-7,8-dihydro-2H-1,6,9-trioxa-9a-borabenzo[cd]azulen-2-yl)methanamine hydrochloride], the “Selectivity Index (A/B)” value in assay [1] (HepG2 cell 48 h Tox50 (A) / Mtb H37Rv MIC (B)) is on record as 4177. The MIC is under 0.1 µM in assay [1] (Mycobacterium tuberculosis, H37RV, read-out: Mtb H37Rv MIC (B)); 64 µg/mL with A. baumannii ATCC 17978; 64 µg/mL in the assay with E. coli K12; 64 µg/mL in the assay on E. coli K12 tolC::Tn10; 64 µg/mL in the assay with P. aeruginosa PA01; under 0.1 µM in assay [2]. Moreover, in [1] (listed as EXAMPLE 2 G2-Br, hydrochloride), the “Mtb H37Rv MIC (B)” value came to 0.07 µM. Further, the IC50 against Human mito LeuRS is over 300 µM; with HepG2 cells it was 292 µM; on Human cyto LeuRS, 118 µM; on Mtb LeuRS (read-out: Mtb LeuRS IC50), 0.115 µM; on Mtb LeuRS (said to be sub-micromolar, read-out: IC50 values against M. tuberculosis), 0.13 µM.
